The nature of this data set: Toxicity in iv dosed NMRI mouse after 14 days. In kind it is organism-based. The note with it: in vivo.

Take `C[C@@H]1[C@H](O)[C@@H](C)/C=C/C=C/C=C/C=C/C=C/C=C/C=C/[C@H](O[C@@H]2O[C@H](C)[C@@H](O)[C@H](N)[C@@H]2O)C[C@@H]2O[C@](O)(C[C@@H](O)C[C@@H](O)[C@H](O)CC[C@@H](O)C[C@@H](O)CC(=O)O[C@H]1C)C[C@H](O)[C@H]2C(=O)O` [AMPHOTERICIN B]: the LD50 at 336 h was 3.7 mg/kg.

What is called LD50 is the dose expected to kill half of the subjects tested.

The record behind these values is ChEMBL document CHEMBL1147998, “Synthesis of pH-sensitive amphotericin B-poly(ethylene glycol) conjugates and study of their controlled release in vitro” (Bioorg Med Chem, 2007).
